Literature values, collected in patent publication US8709720B2, “Methods and kits for predicting the responsiveness of hepatocellular carcinoma patients to 5-fluorouracil-based combination chemotherapy” (priority 2012, dated 2014).

Tested on: advanced HCC
Conditions: advanced HCC patients, prior research / clinical trials

COc1cccc2c1C(=O)c1c(O)c3c(c(O)c1C2=O)C[C@@](O)(C(=O)CO)C[C@@H]3O[C@H]1C[C@H](N)[C@H](O)[C@H](C)O1 [doxorubicin]
response rate: 32%
